{"source": "patent US20240252472A1", "about": "“COMBINATIONS FOR TREATING CANCER” (Purdue Pharma L.P., priority 2023, published 2024)", "key": {"CD38": {"tested_on": "CD38", "experiment": "CD38 expression on primary myeloma cells from patients ex vivo, flow cytometry", "assay_type": "cell-based, human", "details": "2.5 μM, 48 hours; 3 out of 11 patients (low basal expression); not observed with high basal CD38", "experimental": "For surface staining, cells were incubated with the appropriate antibodies and 7AAD (Immunostep) for 15 min in the dark. Data were acquired using a FACSCalibur cytometer (BD Biosciences) and analyzed using Infinicyt™ software (Cytognos). Specifically, the expression of CD38 or ligands for NK cell activating receptors (MICA, MICB, ULBP1-3, PVR and CD112) in MM cell lines was determined on the viable cell population (7AAD-). In primary myeloma cells, the expression of CD38 was analyzed over the viable myeloma population using the panel CD138-FITC/CD56-PE/7AAD/CD38-APC, whereas MICA/B-AF488/CD56-PE/7AAD/CD38-APC panel was used to determine MICA/B expression. Normalized median fluorescence intensity (MFI) was calculated by dividing median fluorescence obtained with the specific antibody by median fluorescence of the corresponding isotype control. MFI for each treatment was expressed as a percentage relative to the control (100%, cells cultured in media with DMSO).\nCD38 expression was further examined by flow cytometry in malignant plasma cells from ex vivo cultures of 11 MM patients' bone marrow samples treated with tinostamustine (2.5 μM) for 48 hours."}, "MOLP-8 cells": {"tested_on": "MOLP-8 cells", "experiment": "Daratumumab-mediated complement-dependent cytotoxicity (CDC) on pre-treated MM cells", "assay_type": "cell-based", "details": "MOLP-8 pre-treated 2.5 μM 48 hours; daratumumab 0.1 or 1 μg/mL, 10% human serum, 4 hours", "experimental": "ADCC, CDC and apoptosis via cross-linking To assess the effect of tinostamustine pre-treatment on cytotoxic mechanisms mediated by daratumumab, MM cell lines were first incubated in presence of tinostamustine (2.5 μM) or DMSO for 48 hours. Cells were then washed to remove tinostamustine or DMSO from the culture medium, and the corresponding cytotoxic assay (ADCC, CDC or apoptosis via cross-linking) was performed.\nFor the evaluation of ADCC, tinostamustine or DMSO pre-treated cells were cocultured with NK cells obtained from healthy donors in the presence of daratumumab (1 μg/ml) or the corresponding isotype control for 4 hours (ratio 1:1). Briefly, peripheral blood mononuclear cells (PBMCs) were isolated from healthy donor buffy coats by Lymphoprep density gradient centrifugation. […] In all three assays, the cytotoxic effect on MM cells was evaluated by flow cytometry with Annexin V/7AAD staining after treatment with daratumumab. […]\nMM cells (MOLP-8 pre-treated with 0 or 2.5 μM EDO-S101 for 48 hours in accordance with the methods outlined above) were incubated with 0.1 μg/mL daratumumab, 1 μg/ml daratumumab, or the corresponding isotype control, for 30 minutes at 37° C. […] The percentage of dead cells was then evaluated by flow cytometry in accordance with the methods outlined above, using AnnexinV/7AAD staining."}, "MM cells (MOLP-8)": {"tested_on": "MM cells (MOLP-8)", "experiment": "Daratumumab-mediated ADCP, macrophage/myeloma co-culture", "assay_type": "cell-based, human", "details": "MM cells pre-treated 2.5 μM 48 hours; macrophages 3:1, daratumumab 4 hours; vs not pre-treated", "experimental": "Mononuclear cells were isolated from buffy coats from healthy donors using density gradient centrifugation with Ficoll and subsequently CD14+ monocytes were magnetically isolated in an autoMACS® Pro Separator. Monocytes were cultured for 7 days in the presence of GM-CSF (10 ng/mL) to induce differentiation to macrophages. For the evaluation of ADCP, myeloma cells were either untreated or pre-treated with 2.5 μM EDO-S101 for 48 hours. Cells were washed to remove EDO-S101 from the culture medium, and untreated and pre-treated myeloma cells were stained with PKH26. Co-cultures of macrophages and myeloma cells^PKH26+ (ratio 3:1) were incubated with different concentrations of daratumumab or the corresponding isotype control for 4 hours at 37° C. ADCP was evaluated by flow cytometry with the panel: CD11b-FITC/PKH26/CD138-APC. […]\nADCP was quantified as the percentage of double positive events using the following formula: […]\n‘Treatment double positive cells’ refers to the proportion of macrophages (as a percentage) determined to have phacocytosed MM cells in co-cultures treated with daratumumab. ‘Control double positive cells’ refers to the proportion of macrophages (as a percentage) determined to have phacocytosed MM cells in co-cultures that were ED-S101 untreated or pre-treated but not treated with daratumumab.\nElimination of myeloma cells was calculated using the following formula: […]"}, "MICA mRNA": {"tested_on": "MICA mRNA", "experiment": "MICA mRNA by RT-qPCR in MM cell lines", "assay_type": "cell-based, human", "details": "four MM cell lines tested; 1 and 2.5 μM, 36 hours (MOLP-8 6 hours)", "experimental": "Real time quantitative PCR (RT-qPCR) Total RNA was isolated using the RNeasy Mini Kit (Qiagen, Hilden, Germany). Following reverse transcription, PCR was performed using TaqMan Gene Expression Assays (Applied Biosystems, Foster City, CA, USA): CD38 (Hs01120071_m1), MICA (Hs00741286_m1), MICB (Hs00792952_m1) and GAPDH (Hs99999905_m1). The results were expressed as fold change relative to expression of the target gene in control cells, using endogenous expression of GAPDH for normalization."}}, "data": [{"smiles": "Cn1c(CCCCCCC(=O)NO)nc2cc(N(CCCl)CCCl)ccc21", "note": "[EDO-S101, 7-(5-(bis(2-chloroethyl)amino)-1-methyl-1H-benzo[d]imidazol-2-yl)-N-hydroxyheptanamide]", "values": [{"measurement": "CD38 expression in primary myeloma cells", "setting": "CD38", "value": "slightly increased"}, {"measurement": "daratumumab mediated CDC", "setting": "MOLP-8 cells", "value": "enhanced"}, {"measurement": "ADCP: percentage of double positive events (macrophages that have phagocytosed myeloma cells)", "setting": "MM cells (MOLP-8)", "value": "increased"}, {"measurement": "ADCP: percentage of eliminated MM cells", "setting": "MM cells (MOLP-8)", "value": "decreased"}, {"measurement": "expression of MICA at the mRNA level", "setting": "MICA mRNA", "value": "increased"}]}]}
